Results as given in PMC4038168 (Chemical communications (Cambridge, England), 2014).
Entries after “also recorded” stand apart in the source; their conditions may differ.

What was measured:
cannabinoid receptor CB1 [1] = molecular target: T1, cannabinoid receptor CB1 (Homo sapiens, UniProt P21554); assay: CB1 functional assay; assay type: cell-based
human FAAH (h-FAAH) = molecular target: T2, human FAAH (h-FAAH) (Homo sapiens, UniProt O00519); assay: human FAAH inhibition; assay type: biochemical
T2 sequence (O00519 1-579): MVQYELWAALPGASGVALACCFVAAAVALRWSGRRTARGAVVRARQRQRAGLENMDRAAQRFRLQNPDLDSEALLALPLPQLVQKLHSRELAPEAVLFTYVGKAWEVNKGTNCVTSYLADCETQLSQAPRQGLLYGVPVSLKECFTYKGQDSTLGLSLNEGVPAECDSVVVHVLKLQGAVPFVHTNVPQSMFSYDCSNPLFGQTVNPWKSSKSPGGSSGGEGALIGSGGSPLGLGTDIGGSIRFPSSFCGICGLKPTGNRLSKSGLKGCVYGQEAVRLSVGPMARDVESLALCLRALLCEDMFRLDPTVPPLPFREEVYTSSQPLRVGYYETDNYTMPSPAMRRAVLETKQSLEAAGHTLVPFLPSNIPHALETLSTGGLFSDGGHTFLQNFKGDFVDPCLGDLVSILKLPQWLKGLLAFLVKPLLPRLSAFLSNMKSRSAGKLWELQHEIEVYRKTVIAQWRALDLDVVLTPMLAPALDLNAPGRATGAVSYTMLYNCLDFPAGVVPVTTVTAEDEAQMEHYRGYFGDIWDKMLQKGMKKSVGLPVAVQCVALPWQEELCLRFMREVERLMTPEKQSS

rat FAAH (r-FAAH) = molecular target: T3, rat FAAH (r-FAAH) (Rattus norvegicus, UniProt P97612); assay: rat FAAH inhibition; assay type: biochemical
T3 sequence (P97612 1-579): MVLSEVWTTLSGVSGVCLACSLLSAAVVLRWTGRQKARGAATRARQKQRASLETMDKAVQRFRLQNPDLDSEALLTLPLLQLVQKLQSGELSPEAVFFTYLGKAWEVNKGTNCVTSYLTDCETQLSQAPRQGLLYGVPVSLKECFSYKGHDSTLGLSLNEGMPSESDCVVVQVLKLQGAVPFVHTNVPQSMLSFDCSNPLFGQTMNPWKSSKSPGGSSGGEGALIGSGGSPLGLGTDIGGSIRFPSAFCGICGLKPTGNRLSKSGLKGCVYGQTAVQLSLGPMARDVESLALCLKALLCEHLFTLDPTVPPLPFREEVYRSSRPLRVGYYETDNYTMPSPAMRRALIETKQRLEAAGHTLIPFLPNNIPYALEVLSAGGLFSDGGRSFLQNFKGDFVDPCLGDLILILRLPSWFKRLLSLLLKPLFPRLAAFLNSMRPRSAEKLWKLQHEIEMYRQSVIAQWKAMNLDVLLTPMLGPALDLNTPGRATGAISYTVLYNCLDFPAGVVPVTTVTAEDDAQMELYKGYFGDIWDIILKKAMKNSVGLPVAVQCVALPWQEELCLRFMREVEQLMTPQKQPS

human DRD3 = human DRD3 (Homo sapiens, UniProt P35462); assay: human DRD3 functional assay; assay type: cell-based
Sequence of human DRD3 (P35462 whole entry): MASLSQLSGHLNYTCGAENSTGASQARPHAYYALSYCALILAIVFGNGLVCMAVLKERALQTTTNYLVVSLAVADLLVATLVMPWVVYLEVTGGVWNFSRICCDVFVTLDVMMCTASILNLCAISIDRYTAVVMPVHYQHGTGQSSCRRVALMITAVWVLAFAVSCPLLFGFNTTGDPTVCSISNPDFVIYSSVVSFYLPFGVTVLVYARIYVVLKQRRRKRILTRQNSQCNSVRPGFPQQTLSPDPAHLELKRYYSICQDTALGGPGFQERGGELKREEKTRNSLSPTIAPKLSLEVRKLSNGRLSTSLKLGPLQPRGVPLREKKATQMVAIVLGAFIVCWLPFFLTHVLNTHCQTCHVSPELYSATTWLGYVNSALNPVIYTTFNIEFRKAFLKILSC

cannabinoid receptor CB1 [2] = molecular target: T1, cannabinoid receptor CB1; conditions: cited from earlier work

T1 sequence (P21554 whole entry): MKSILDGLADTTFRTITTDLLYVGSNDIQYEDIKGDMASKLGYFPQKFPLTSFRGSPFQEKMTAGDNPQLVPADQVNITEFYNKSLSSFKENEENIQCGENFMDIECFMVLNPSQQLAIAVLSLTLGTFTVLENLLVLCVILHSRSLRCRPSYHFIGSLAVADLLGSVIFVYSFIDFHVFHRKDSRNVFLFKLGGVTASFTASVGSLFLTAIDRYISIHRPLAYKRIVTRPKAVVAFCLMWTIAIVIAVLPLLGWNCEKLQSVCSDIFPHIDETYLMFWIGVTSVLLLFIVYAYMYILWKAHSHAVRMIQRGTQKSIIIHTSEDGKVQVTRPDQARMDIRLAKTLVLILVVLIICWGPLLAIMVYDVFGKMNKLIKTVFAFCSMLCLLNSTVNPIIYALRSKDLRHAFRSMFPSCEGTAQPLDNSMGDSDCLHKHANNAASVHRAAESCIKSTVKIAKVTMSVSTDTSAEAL

Q: With COc1ccccc1N1CCN(CCCCNC(=O)c2ccc3ccccc3c2)CC1 [Compound 3, BP-897] as the compound, how does the “CB1 activity (in words)” value (cannabinoid receptor CB1 [1]) read?
A: completely devoid of CB1 activity; also recorded: did not show any activity

Q: What about the “inhibitory activity on h-FAAH (in words)” value (human FAAH (h-FAAH)) of the same compound?
A: did not show any significant inhibitory activity

Q: And the “inhibitory activity on r-FAAH (in words)” value (rat FAAH (r-FAAH))?
A: did not show any significant inhibitory activity

Q: Which “activity on DRD3 (in words)” value (human DRD3) does the source give for NC(=O)c1cccc(-c2cccc(OC(=O)NC3CCCCC3)c2)c1 [Compound 5, URB597] here?
A: no activity

Q: What about the “effect on CB1 (in words)” value (cannabinoid receptor CB1 [2]) of the same compound?
A: no effect

Q: Which results are given for O=C(NCCCCN1CCN(c2cccc(Cl)c2Cl)CC1)c1ccc(-c2ccccn2)cc1 [Compound 2, CJB090]?
A: CB1 activity (in words) (cannabinoid receptor CB1 [1]): rather potent CB1 agonist; EC50 (cannabinoid receptor CB1 [1]; read-out: CB1 EC50): 840 nM; inhibitory activity on h-FAAH (in words) (human FAAH (h-FAAH)): did not show any significant inhibitory activity; inhibitory activity on r-FAAH (in words) (rat FAAH (r-FAAH)): did not show any significant inhibitory activity
